Source: ChEMBL document CHEMBL5584310, “Phenanthrenes from Juncus articulatus with Antibacterial and Biofilm Formation Inhibitory Activity” (J Nat Prod, 2024)
In brackets after ≈: the same amount, converted by molar mass.

How the values were obtained:
[1] = tested on: Pseudomonas aeruginosa; assay: Antibacterial activity against Pseudomonas aeruginosa PAO1 assessed as inhibition of bacterial growth incubated for 16 hrs; assay type: functional
[2] = tested on: Escherichia coli; assay: Antibacterial activity against Escherichia coli ATCC 25922 assessed as inhibition of bacterial growth incubated for 16 hrs; assay type: functional
[3] = tested on: Staphylococcus aureus; assay: Antibacterial activity against methicillin-susceptible Staphylococcus aureus ATCC 6538 assessed as inhibition of bacterial growth incubated for 16 hrs; assay type: functional
[4] = tested on: Staphylococcus aureus; assay: Antibacterial activity against methicillin-resistant Staphylococcus aureus ATCC 33592 assessed as inhibition of bacterial growth incubated for 16 hrs; assay type: functional
[5] = tested on: Staphylococcus aureus; assay: Antibiofilm activity against methicillin-susceptible Staphylococcus aureus ATCC 6538 assessed as inhibition of biofilm formation incubated for 24 hrs by crystal violet staining based microplate reader assay; assay type: functional
[6] = tested on: Staphylococcus aureus; assay: Antibiofilm activity against methicillin-susceptible Staphylococcus aureus ATCC 6538 assessed as biofilm eradication incubated for 24 hrs by crystal violet staining based microplate reader assay; assay type: functional
[7] = tested on: SiHa; assay: Antiproliferative activity against human SiHa cells assessed as inhibition of cell growth incubated for 72 hrs by MTT assay; assay type: functional, cell-based
[8] = tested on: Staphylococcus aureus; assay: Antibiofilm activity against methicillin-resistant Staphylococcus aureus ATCC 33592 assessed as inhibition of biofilm formation incubated for 24 hrs by crystal violet staining based microplate reader assay; assay type: functional
[9] = tested on: COLO 205; assay: Antiproliferative activity against human COLO 205 cells assessed as inhibition of cell growth incubated for 72 hrs by MTT assay; assay type: functional, cell-based; details: COLO 205, 72 h
[10] = tested on: COLO 320; assay: Antiproliferative activity against human COLO 320 cells assessed as inhibition of cell growth incubated for 72 hrs by MTT assay; assay type: functional, cell-based; details: COLO 320, 72 h
[11] = tested on: HeLa; assay: Antiproliferative activity against human HeLa cells assessed as inhibition of cell growth incubated for 72 hrs by MTT assay; assay type: functional, cell-based
[12] = tested on: Staphylococcus aureus; assay: Antibiofilm activity against methicillin-resistant Staphylococcus aureus ATCC 33592 assessed as biofilm eradication incubated for 24 hrs by crystal violet staining based microplate reader assay; assay type: functional

Structure (SMILES): C=Cc1c(C)c(O)cc2c1CCc1c-2ccc(O)c1C
- MIC [1]: > 481 µM
- MIC [2]: > 481 µM
- MIC [3]: 481 µM (≈ 128 µg/mL)
- MIC [4]: 481 µM (≈ 128 µg/mL)

Structure (SMILES): C=Cc1c(C)c(O)cc2c1ccc1c(C)c(O)ccc12
- MIC [1]: > 484 µM
- MIC [2]: > 484 µM
- MIC [3]: 15.1 µM (≈ 3.99 µg/mL)
- MIC [4]: 15.1 µM (≈ 3.99 µg/mL)
- MBIC [5]: 15.1 µM
- MBEC [6]: >484 µM

Structure (SMILES): CC(=O)c1c(C)c(O)cc2c1ccc1c(C)c(O)ccc12
- MIC [1]: > 457 µM
- MIC [2]: > 457 µM
- MIC [3]: 457 µM (≈ 128 µg/mL)
- MIC [4]: 457 µM (≈ 128 µg/mL)

Structure (SMILES): C#Cc1c(C)c(O)cc2c1CCc1c-2ccc(O)c1C
- MIC [1]: > 485 µM
- MIC [2]: > 485 µM
- MIC [3]: 121 µM (≈ 32.1 µg/mL)
- MIC [4]: 121 µM (≈ 32.1 µg/mL)
- IC50 [7]: 25.3 µM

Structure (SMILES): C=Cc1c(C)c(O)c(-c2cc3c(c(C)c2O)CCc2c(C=O)c(C)cc(O)c2-3)c2c1ccc1c(C)c(O)ccc12
- MIC [1]: > 121 µM
- MIC [2]: > 121 µM
- MIC [3]: 60.5 µM (≈ 32.1 µg/mL)
- MIC [4]: 121 µM (≈ 64.2 µg/mL)

Structure (SMILES): C=Cc1c(C)c(O)cc2c1ccc1c(C)c(Oc3c(O)c(C)c(C=C)c4ccc5c(C)c(O)ccc5c34)ccc12
- MIC [1]: > 243 µM
- MIC [2]: > 243 µM
- MIC [3]: 122 µM (≈ 64 µg/mL)
- MIC [4]: 122 µM (≈ 64 µg/mL)

Structure (SMILES): C=Cc1c(COC)c(O)cc2c1CCc1c-2ccc(O)c1C
- MIC [1]: > 413 µM
- MIC [2]: > 413 µM
- MIC [3]: 413 µM (≈ 122 µg/mL)
- MIC [4]: 413 µM (≈ 122 µg/mL)

Structure (SMILES): C=Cc1c(C)c(O)cc2c1CCc1c-2cc(-c2cc3c(c(C)c2O)CCc2c-3cc(O)c(C)c2C=C)c(O)c1C
- MIC [1]: > 121 µM
- MBIC [8]: 242 µM
- MIC [2]: > 121 µM
- MIC [3]: 60.5 µM (≈ 32.1 µg/mL)
- MIC [4]: 60.5 µM (≈ 32.1 µg/mL)
- MBIC [5]: 121 µM

Structure (SMILES): C#Cc1c(CO)c(O)cc2c1CCc1c-2ccc(O)c1C
- MIC [1]: > 457 µM
- IC50 [9]: 12.3 µM
- MIC [2]: > 457 µM
- IC50 [10]: 12.3 µM
- MIC [3]: 57.1 µM (≈ 16 µg/mL)
- MIC [4]: 57.1 µM (≈ 16 µg/mL)
- MBIC [5]: 114.3 µM
- IC50 [11]: 12.3 µM

Structure (SMILES): C=Cc1c(C)cc(O)c2c1CCc1c-2ccc(O)c1C
- MIC [1]: > 480 µM
- IC50 [9]: 12.3 µM
- MBIC [8]: 60 µM
- MIC [2]: > 480 µM
- IC50 [10]: 12.3 µM
- MIC [3]: 30 µM (≈ 7.99 µg/mL)
- MIC [4]: 30 µM (≈ 7.99 µg/mL)
- MBIC [5]: 60 µM
- IC50 [11]: 12.3 µM

Structure (SMILES): C=Cc1c(COC)c(O)cc2c1ccc1c(C)c(O)ccc12
- MIC [1]: > 435 µM
- MIC [2]: > 435 µM
- MIC [3]: 218 µM (≈ 64 µg/mL)
- MIC [4]: 218 µM (≈ 64 µg/mL)

Structure (SMILES): C=CC1=C(C)C(=O)C=C2c3ccc(O)c(C)c3CC[C@@]21O
- MIC [1]: > 454 µM
- MIC [2]: > 454 µM
- MIC [3]: 56.8 µM (≈ 16 µg/mL)
- MIC [4]: 56.8 µM (≈ 16 µg/mL)
- MBIC [5]: 113.5 µM

Structure (SMILES): C#Cc1c(C)c(O)cc2c1ccc1c(C)c(O)ccc12
- MIC [1]: > 488 µM
- MIC [2]: > 488 µM
- MIC [3]: 15.3 µM (≈ 4.01 µg/mL)
- MIC [4]: 15.3 µM (≈ 4.01 µg/mL)
- MBIC [5]: 15.3 µM
- MBEC [6]: >488 µM

Structure (SMILES): C=Cc1c(CO)c(O)cc2c1ccc1c(C)c(O)ccc12
- MIC [1]: > 229 µM
- MIC [2]: > 229 µM
- MIC [3]: 114 µM (≈ 32 µg/mL)
- MIC [4]: 114 µM (≈ 32 µg/mL)
- MBIC [5]: 114.3 µM

Structure (SMILES): C=Cc1c(C)cc(O)c2c1CCc1c-2cc(-c2c(O)c(C)c(C=C)c3ccc4c(C)c(O)ccc4c23)c(O)c1C
- MIC [1]: > 242 µM
- IC50 [9]: 12.3 µM
- MBIC [8]: 60.5 µM
- MIC [2]: > 242 µM
- IC50 [10]: 12.3 µM
- MIC [3]: 60.5 µM (≈ 32 µg/mL)
- MIC [4]: 60.5 µM (≈ 32 µg/mL)
- MBIC [5]: 60.5 µM
- IC50 [11]: 12.3 µM

Structure (SMILES): C=Cc1c(C)c(O)cc2c3c(ccc12)C(C)(O)C(=O)C=C3 (stereo not drawn)
- MIC [1]: > 458 µM
- MIC [2]: > 458 µM
- MIC [3]: 229 µM (≈ 64.2 µg/mL)
- MIC [4]: 229 µM (≈ 64.2 µg/mL)

Structure (SMILES): C#Cc1c(CO)c(O)cc2c1ccc1c(C)c(O)ccc12
- MIC [1]: > 230 µM
- MBIC [8]: 114.3 µM
- MIC [2]: > 230 µM
- MIC [3]: 57.5 µM (≈ 16 µg/mL)
- MIC [4]: 115 µM (≈ 32 µg/mL)
- MBIC [5]: 115 µM

Structure (SMILES): C=Cc1c(CO)cc(O)c2c1CCc1c-2ccc(O)c1C
- MIC [1]: > 454 µM
- IC50 [9]: 12.3 µM
- MBIC [8]: 227 µM
- MIC [2]: > 454 µM
- IC50 [10]: 12.3 µM
- MIC [3]: 114 µM (≈ 32 µg/mL)
- MIC [4]: 114 µM (≈ 32 µg/mL)
- MBIC [5]: 227 µM
- IC50 [11]: 12.3 µM

Structure (SMILES): C=Cc1c(C)c(Oc2c(O)c(C)c(C=C)c3ccc4c(C)c(O)ccc4c23)cc2c1ccc1c(C)c(O)ccc12
- MIC [1]: > 121 µM
- MIC [2]: > 121 µM
- MIC [3]: 60.5 µM (≈ 31.9 µg/mL)
- MIC [4]: 60.5 µM (≈ 31.9 µg/mL)
- MBIC [5]: 121 µM

Structure (SMILES): O=C(O)c1cn(C2CC2)c2cc(N3CCNCC3)c(F)cc2c1=O [CIPROFLOXACIN]
- MIC [1]: 0.37 µM (≈ 0.123 µg/mL)
- MIC [3]: 0.37 µM (≈ 0.123 µg/mL)
- MIC [4]: 0.37 µM (≈ 0.123 µg/mL)
- MBIC [5]: 0.75 µM
- MBEC [6]: >386.7 µM

Structure (SMILES): CN[C@H](CC(C)C)C(=O)N[C@H]1C(=O)N[C@@H](CC(N)=O)C(=O)N[C@H]2C(=O)N[C@H]3C(=O)N[C@H](C(=O)N[C@H](C(=O)O)c4cc(O)cc(O)c4-c4cc3ccc4O)[C@H](O)c3ccc(c(Cl)c3)Oc3cc2cc(c3O[C@@H]2O[C@H](CO)[C@@H](O)[C@H](O)[C@H]2O[C@H]2C[C@](C)(N)[C@H](O)[C@H](C)O2)Oc2ccc(cc2Cl)[C@H]1O [VANCOMYCIN]
- MIC [1]: 1770 µM (≈ 2560 µg/mL)
- MBIC [8]: 1.38 µM
- MIC [2]: 177 µM (≈ 256 µg/mL)
- MIC [4]: 1.38 µM (≈ 2 µg/mL)
- MBEC [12]: >88.3 µM
- MBEC [6]: >88.3 µM
